Data set [1] in a line: Viability of HaCaT human keratinocytes (mitochondrial metabolic activity, tetrazolium salts / MTT). The settings on record: HaCaT cells (immortalized keratinocytes).
Description: (§1) We worked with HaCaT cells, an immortalized human keratinocyte cell line, which were cultured in DMEM medium supplemented (1 g/L glucose, 4 mM L-alanyl-glutamine, 10% inactivated fetal bovine serum, 50 IU/penicillin, 50 μg/ml streptomycin) at 37° C. and 5% CO2. Cells were worked between passages 3 to 7.
(§2) They were treated with 2.5 and 5% sialylated GMP, alone or combined with 0.5 and 1% panthenol for 0, 1, 2, 24 and 48 h. To define the percentage of viability of the cells with the different treatments at each of the times tested, cells not treated with either sialidinated GMP or panthenol were used as a control condition.
(§3) Once the time was up, cell viability was determined by measuring mitochondrial metabolic activity by spectrophotometric techniques and using tetrazolium salts.
The next data set has as its system IL-1β. Nature of the data set: IL-1β/GAPDH mRNA expression in HaCaT keratinocytes with or without DNCB. It counts as cell-based, human. To be noted: without DNCB; FIG. 4. The text has this:
To verify that the composition of the present invention regulates the expression of genes associated with inflammation, the expression of IL-1β/GAPDH and Cox-2/GAPDH mRNA was quantified. When keratinocytes are exposed to IL-1β, they increase the levels of messenger RNA of other cytokines such as MIP-2, TNF-α, IL-10 and IL-1α. In this sense, the regulation of IL-1β is beneficial during inflammatory processes in the skin. The regulation of COX-2 is beneficial during inflammatory processes and wound regeneration.
Cells were worked between passages 3 to 7.
They were seeded in 6-well plates at a density of […] and incubated for 24 h at close to 20% confluency. After three days, 75% confluences were achieved.

Description for HaCaT cells: as §1, §2, §3

For `CC(C)(CO)[C@@H](O)C(=O)NCCCO` [panthenol, Panthenol], in data set [1], the cytotoxicity at 1 % is 30% and the cytotoxicity at 2 h, 0.5 % is 30%.

As to glycomacropeptide [GMP], in the data set on IL-1β, the “expression level of IL-1β mRNA in relation to control cells” value is listed as “decreased”. Also, in the data set with HaCaT cells, the cell viability entry is on record as “greater than 50%”.

For the origin of these results see patent US20240225984A9, “TOPICAL COMPOSITION FOR REGULATION OF INFLAMMATION AND SKIN REGENERATION” (Glycopep Therapeutics, S.A.S. de C.V., priority 2022, published 2024).
